US8003691B2, “Antiviral and comma antibacterial pharmaceutical compositions of cantharidic anhydride and method of preparation thereof” (priority 2001, dated 2011)

Key:
[1] = test system: tubercule bacillus; details: reported in literature; cited from earlier work
[2] = test system: staphylococcus; assay type: cell-based
[3] = test system: tubercule bacillus; assay type: cell-based
[4] = test system: virus; test: Minimum concentration for virus deactivation; assay type: cell-based
[5] = human, in vivo
[6] = Solubility of cantharidic anhydride in water, fat and essential oil; assay type: physicochemical
Procedure: In the pharmaceutical composition of the present invention, cantharidic anhydride is dissolved in essential oils or single constituent of essential oils to form cantharidic anhydride-essential oil preparation. The cantharidic anhydride has higher solubility in essential oil. […] That is to say, concentration of cantharidic anhydride in essential oil can be 14 times larger than that in fat and more than 200 time larger than that in water.

| Compound | minimum concentration for tubercule bacillus deactivation [1] | concentration in culture medium that can completely deactivate staphylococcus [2] | concentration in culture medium that can completely deactivate tubercule bacillus [3] | minimum concentration for virus deactivation [4] | adverse reaction to liver and bone marrow [5] | concentration of cantharidic anhydride in essential oil relative to that in fat ([6]; essential oil vs fat) | concentration of cantharidic anhydride in essential oil relative to that in water ([6]; essential oil vs water) | solubility in essential oil ([6]; in essential oil) | solubility in fat ([6]; in fat) | solubility of cantharidic anhydride in water ([6]; in water) |
| --- | --- | --- | --- | --- | --- | --- | --- | --- | --- | --- |
| [H]/N=C(/N)N[C@H]1[C@H](O)[C@@H](O)[C@H](O[C@@H]2O[C@@H](C)[C@](O)(C=O)[C@H]2O[C@@H]2O[C@@H](CO)[C@H](O)[C@@H](O)[C@@H]2NC)[C@@H](N/C(N)=N\[H])[C@@H]1O [streptomycin] | 10 ppm |  |  |  |  |  |  |  |  |  |
| C[C@@]12C(=O)OC(=O)[C@]1(C)[C@H]1CC[C@@H]2O1 [cantharidic anhydride, Cantharidic anhydride] |  | 0.01 ppm | 0.01 ppm | 0.000132 ppm | does not have adverse reaction to liver and bone marrow | 14 times | more than 200 time | ≤ 0.7% | 0.05% | approximately 0.003% |
